Measured values published in patent US20090203632A1, “COMPOSITIONS AND METHODS FOR TREATING CONTRACTURE” (Angiotech International AG, priority 2004, published 2009).

Assay: Water solubility of 5-FU
Assay type: physicochemical
Conditions: read-out: measured water solubility
Description: A hyaluronic acid formulation that includes 5-FU can be prepared as described. 5-FU is combined with 10 mg hyaluronic acid (1 MDa), 1 ml sterile water. The product is stirred until a uniform gel solution, free of particular polymer or drug is achieved. Alternatively, the HA and water may be combined, stirred and autoclaved to homogenize the solution. After dissolving the polymer, the 5-FU may be added with stirring. NaCl is added (as required for isotonicity), and the pH is adjusted to between 6-8 with NaOH and HCl as required. […] The formulation may be injected to the site of treatment (e.g., into a joint) in a volume appropriate to that site. For example, a knee joint might receive a 2 ml injection, whereas a finger joint or tendon sheath may receive substantially less.

Question: Which solubility does the source give for O=c1[nH]cc(F)c(=O)[nH]1 [Formula 5-FU, 5-Fluorouracil] here?
Answer: Its solubility is 12.9 mg/mL.
